Values after ≈ are worked out from the molar mass of the structure shown.
System: Histophilus somni
Assay: minimum inhibitory concentration (MIC)
Experimental: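 Broth microdilution MIC (Sensititre BOPO7F bovine plate, CLSI methods) of 19 antimicrobials against field isolates of P. multocida, M. haemolytica, H. somni (deep nasopharyngeal swabs) and E. coli, Enterococcus spp. (rectal swabs) from weaned dairy heifers. Incubation 16-24 h at 35 C. MIC is the lowest concentration preventing visible growth. Values with <= or > lie at the tested range limits. Trimethoprim-sulfamethoxazole is given as the trimethoprim component of a 1:19 mixture.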

CC1(C)S[C@@H]2[C@H](NC(=O)[C@H](N)c3ccccc3)C(=O)N2[C@H]1C(=O)O [Ampicillin]
Settings | minimum inhibitory concentration [µg/mL]
isolate (source animal id): 3 | ≤ 0.25
isolate (source animal id): 4 | 0.5 (≈ 1.43 µM)
isolate (source animal id): 7 | ≤ 0.25
isolate (source animal id): 14 | ≤ 0.25
isolate (source animal id): 15 | ≤ 0.25
isolate (source animal id): 17 | ≤ 0.25
isolate (source animal id): 18 | ≤ 0.25
isolate (source animal id): 20 | ≤ 0.25
isolate (source animal id): 23 | ≤ 0.25
isolate (source animal id): 45 | ≤ 0.25
isolate (source animal id): 53 | ≤ 0.25
isolate (source animal id): 83 | ≤ 0.25
isolate (source animal id): 88 | ≤ 0.25
isolate (source animal id): 92 | ≤ 0.25
isolate (source animal id): 93 | ≤ 0.25
isolate (source animal id): 99 | ≤ 0.25
isolate (source animal id): 100 | ≤ 0.25
isolate (source animal id): 105 | ≤ 0.25
isolate (source animal id): 107 | ≤ 0.25
isolate (source animal id): 108 | ≤ 0.25
isolate (source animal id): 109 | ≤ 0.25
isolate (source animal id): 110 | ≤ 0.25
isolate (source animal id): 117 | ≤ 0.25
isolate (source animal id): 121 | ≤ 0.25
isolate (source animal id): 123 | ≤ 0.25
isolate (source animal id): 124 | ≤ 0.25
isolate (source animal id): 127 | ≤ 0.25
isolate (source animal id): 128 | ≤ 0.25
isolate (source animal id): 130 | > 16
isolate (source animal id): 132 | ≤ 0.25
isolate (source animal id): 135 | ≤ 0.25
isolate (source animal id): 140 | ≤ 0.25
isolate (source animal id): 141 | ≤ 0.25
isolate (source animal id): 142 | ≤ 0.25
isolate (source animal id): 144 | ≤ 0.25
isolate (source animal id): 146 | ≤ 0.25
isolate (source animal id): 147 | ≤ 0.25
isolate (source animal id): 151 | ≤ 0.25
isolate (source animal id): 153 | ≤ 0.25
isolate (source animal id): 154 | ≤ 0.25
isolate (source animal id): 156 | ≤ 0.25
isolate (source animal id): 157 | ≤ 0.25
isolate (source animal id): 176 | ≤ 0.25
isolate (source animal id): 183 | ≤ 0.25
isolate (source animal id): 186 | ≤ 0.25
isolate (source animal id): 196 | ≤ 0.25
isolate (source animal id): 198 | ≤ 0.25
isolate (source animal id): 200 | ≤ 0.25
isolate (source animal id): 206 | ≤ 0.25
isolate (source animal id): 208 | ≤ 0.25
isolate (source animal id): 210 | ≤ 0.25
isolate (source animal id): 212 | ≤ 0.25
isolate (source animal id): 215 | ≤ 0.25
isolate (source animal id): 216 | ≤ 0.25
isolate (source animal id): 218 | ≤ 0.25
isolate (source animal id): 219 | ≤ 0.25
isolate (source animal id): 224 | ≤ 0.25
isolate (source animal id): 228 | ≤ 0.25
isolate (source animal id): 230 | ≤ 0.25
isolate (source animal id): 233 | ≤ 0.25
isolate (source animal id): 238 | ≤ 0.25
isolate (source animal id): 239 | ≤ 0.25
isolate (source animal id): 241 | ≤ 0.25
isolate (source animal id): 242 | ≤ 0.25
isolate (source animal id): 243 | ≤ 0.25
isolate (source animal id): 245 | ≤ 0.25
isolate (source animal id): 246 | ≤ 0.25
isolate (source animal id): 247 | ≤ 0.25
isolate (source animal id): 248 | ≤ 0.25
isolate (source animal id): 250 | ≤ 0.25
isolate (source animal id): 251 | ≤ 0.25
isolate (source animal id): 252 | ≤ 0.25
isolate (source animal id): 254 | ≤ 0.25
isolate (source animal id): 258 | ≤ 0.25
isolate (source animal id): 259 | ≤ 0.25
isolate (source animal id): 262 | ≤ 0.25
isolate (source animal id): 264 | ≤ 0.25
isolate (source animal id): 265 | 4 (≈ 11.4 µM)
isolate (source animal id): 266 | ≤ 0.25
isolate (source animal id): 267 | ≤ 0.25
isolate (source animal id): 269 | ≤ 0.25
isolate (source animal id): 271 | ≤ 0.25
isolate (source animal id): 272 | 4 (≈ 11.4 µM)
isolate (source animal id): 274 | ≤ 0.25
isolate (source animal id): 276 | ≤ 0.25
isolate (source animal id): 278 | ≤ 0.25
isolate (source animal id): 280 | 1 (≈ 2.86 µM)
isolate (source animal id): 281 | ≤ 0.25
isolate (source animal id): 283 | ≤ 0.25
isolate (source animal id): 288 | ≤ 0.25
isolate (source animal id): 291 | ≤ 0.25
isolate (source animal id): 292 | ≤ 0.25
isolate (source animal id): 296 | ≤ 0.25
isolate (source animal id): 306 | ≤ 0.25
isolate (source animal id): 336 | ≤ 0.25
isolate (source animal id): 337 | ≤ 0.25
isolate (source animal id): 341 | ≤ 0.25

— the supplement of paper PMC8612539
